Experimental data reported in patent publication US20260207602A1, “EGFR INHIBITORS” (Blueprint Medicines Corporation, priority 2022, published 2026).
pIC50: −log10 of the molar value.

Columns and labels:
[1] = target: T1, EGFR L858R (Homo sapiens, UniProt P00533, L858R); assay: Biochemical EGFR inhibition assay (Caliper mobility shift), EGFR L858R; conditions: biochemical Caliper mobility shift assay, EGFR L858R enzyme; read-out: Enz EGFR L858R IC50
T1 construct: purchased SignalChem E10-122BG
Procedure, shortened: (§1)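 Mobility-shift readout: phosphorylated and unphosphorylated 5-FAM peptide (2.5 µM) separated electrophoretically. Reactions at room temperature (25 °C), 1.0 mM ATP or ATP Km, HEPES pH 7.5 with MgCl2, Brij-35, DTT and 1.0% DMSO; terminated at 10–20% turnover with 35 mM EDTA. Apparent IC50 fitted.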

[2] = target: intracellular phosphorylation of EGFR (Tyr1068) in PC-9 cells (Homo sapiens, UniProt P00533, DEL746-750); assay: PC-9 pEGFR AlphaLISA assay; type: cell-based; conditions: 4 hours incubation, read-out: Phos EGFR PC9 IC50
Procedure, shortened: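 PC-9 cells (EGFR del746-750) in phenol-free DMEM/10% FBS, adhered overnight, then exposed to 10-point 4-fold compound dilutions for 4 h at 37 °C. Lysates assayed for pEGFR Tyr1068 by AlphaLISA SureFire Ultra; IC50 from percent pEGFR inhibition vs log concentration.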

[3] = target: T2, EGFR (d746-750) (Homo sapiens, UniProt P00533, DEL746-750); assay: Biochemical EGFR inhibition assay (Caliper mobility shift), EGFR (d746-750); conditions: biochemical Caliper mobility shift assay, EGFR Exon 19-del enzyme; read-out: Enz EGFR Exon 19-del IC50
T2 construct: purchased SignalChem E10-122JG
Procedure, shortened: as §1

T2 sequence (P00533 with tags, fused parts or gaps DEL746-750 limits assumed): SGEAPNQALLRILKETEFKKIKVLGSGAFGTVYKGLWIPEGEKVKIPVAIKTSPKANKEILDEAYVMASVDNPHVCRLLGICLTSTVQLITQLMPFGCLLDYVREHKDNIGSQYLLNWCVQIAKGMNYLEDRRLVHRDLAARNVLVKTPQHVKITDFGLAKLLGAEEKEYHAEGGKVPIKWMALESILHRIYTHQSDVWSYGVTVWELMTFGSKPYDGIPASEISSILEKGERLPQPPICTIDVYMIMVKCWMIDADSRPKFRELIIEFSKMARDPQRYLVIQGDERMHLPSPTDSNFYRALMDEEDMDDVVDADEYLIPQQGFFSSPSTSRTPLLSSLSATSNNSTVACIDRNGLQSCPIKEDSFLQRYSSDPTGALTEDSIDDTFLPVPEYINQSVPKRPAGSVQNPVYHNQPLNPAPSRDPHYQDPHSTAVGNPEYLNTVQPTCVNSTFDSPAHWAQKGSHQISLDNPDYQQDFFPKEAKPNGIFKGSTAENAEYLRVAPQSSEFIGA
intracellular phosphorylation of EGFR (Tyr1068) in PC-9 cells, sequence (P00533 with tags, fused parts or gaps DEL746-750): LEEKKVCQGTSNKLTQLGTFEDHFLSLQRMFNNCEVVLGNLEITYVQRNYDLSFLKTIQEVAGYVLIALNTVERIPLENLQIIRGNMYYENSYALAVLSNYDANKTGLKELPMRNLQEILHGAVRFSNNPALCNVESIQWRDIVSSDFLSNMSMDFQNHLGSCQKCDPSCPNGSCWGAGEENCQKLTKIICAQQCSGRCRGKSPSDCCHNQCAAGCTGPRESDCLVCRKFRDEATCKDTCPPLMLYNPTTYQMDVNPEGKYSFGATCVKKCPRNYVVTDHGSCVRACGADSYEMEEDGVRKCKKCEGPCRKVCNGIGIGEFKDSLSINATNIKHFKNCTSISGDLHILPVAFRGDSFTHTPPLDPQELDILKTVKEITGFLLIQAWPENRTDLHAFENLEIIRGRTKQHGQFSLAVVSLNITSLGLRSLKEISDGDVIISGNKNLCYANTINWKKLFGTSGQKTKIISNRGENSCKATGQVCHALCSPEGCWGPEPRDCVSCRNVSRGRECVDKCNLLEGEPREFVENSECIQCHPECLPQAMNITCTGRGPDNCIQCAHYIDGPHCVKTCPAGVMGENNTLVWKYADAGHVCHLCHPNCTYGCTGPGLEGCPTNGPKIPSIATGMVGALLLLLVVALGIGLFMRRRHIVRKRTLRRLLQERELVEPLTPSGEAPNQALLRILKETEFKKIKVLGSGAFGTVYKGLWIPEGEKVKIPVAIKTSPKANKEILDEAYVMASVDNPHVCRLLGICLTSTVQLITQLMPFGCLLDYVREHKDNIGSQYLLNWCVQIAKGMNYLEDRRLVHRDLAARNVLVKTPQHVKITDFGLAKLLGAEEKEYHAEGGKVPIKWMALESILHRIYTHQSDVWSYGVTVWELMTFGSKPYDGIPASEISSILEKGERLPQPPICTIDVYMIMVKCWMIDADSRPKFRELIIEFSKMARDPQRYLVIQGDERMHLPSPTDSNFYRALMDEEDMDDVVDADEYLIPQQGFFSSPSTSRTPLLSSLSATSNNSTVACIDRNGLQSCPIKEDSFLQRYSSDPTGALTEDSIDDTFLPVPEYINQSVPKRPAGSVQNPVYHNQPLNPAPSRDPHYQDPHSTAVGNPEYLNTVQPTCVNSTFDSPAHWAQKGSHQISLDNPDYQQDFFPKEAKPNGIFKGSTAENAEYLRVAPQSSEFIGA
T1 sequence (P00533 25-1210 L858R): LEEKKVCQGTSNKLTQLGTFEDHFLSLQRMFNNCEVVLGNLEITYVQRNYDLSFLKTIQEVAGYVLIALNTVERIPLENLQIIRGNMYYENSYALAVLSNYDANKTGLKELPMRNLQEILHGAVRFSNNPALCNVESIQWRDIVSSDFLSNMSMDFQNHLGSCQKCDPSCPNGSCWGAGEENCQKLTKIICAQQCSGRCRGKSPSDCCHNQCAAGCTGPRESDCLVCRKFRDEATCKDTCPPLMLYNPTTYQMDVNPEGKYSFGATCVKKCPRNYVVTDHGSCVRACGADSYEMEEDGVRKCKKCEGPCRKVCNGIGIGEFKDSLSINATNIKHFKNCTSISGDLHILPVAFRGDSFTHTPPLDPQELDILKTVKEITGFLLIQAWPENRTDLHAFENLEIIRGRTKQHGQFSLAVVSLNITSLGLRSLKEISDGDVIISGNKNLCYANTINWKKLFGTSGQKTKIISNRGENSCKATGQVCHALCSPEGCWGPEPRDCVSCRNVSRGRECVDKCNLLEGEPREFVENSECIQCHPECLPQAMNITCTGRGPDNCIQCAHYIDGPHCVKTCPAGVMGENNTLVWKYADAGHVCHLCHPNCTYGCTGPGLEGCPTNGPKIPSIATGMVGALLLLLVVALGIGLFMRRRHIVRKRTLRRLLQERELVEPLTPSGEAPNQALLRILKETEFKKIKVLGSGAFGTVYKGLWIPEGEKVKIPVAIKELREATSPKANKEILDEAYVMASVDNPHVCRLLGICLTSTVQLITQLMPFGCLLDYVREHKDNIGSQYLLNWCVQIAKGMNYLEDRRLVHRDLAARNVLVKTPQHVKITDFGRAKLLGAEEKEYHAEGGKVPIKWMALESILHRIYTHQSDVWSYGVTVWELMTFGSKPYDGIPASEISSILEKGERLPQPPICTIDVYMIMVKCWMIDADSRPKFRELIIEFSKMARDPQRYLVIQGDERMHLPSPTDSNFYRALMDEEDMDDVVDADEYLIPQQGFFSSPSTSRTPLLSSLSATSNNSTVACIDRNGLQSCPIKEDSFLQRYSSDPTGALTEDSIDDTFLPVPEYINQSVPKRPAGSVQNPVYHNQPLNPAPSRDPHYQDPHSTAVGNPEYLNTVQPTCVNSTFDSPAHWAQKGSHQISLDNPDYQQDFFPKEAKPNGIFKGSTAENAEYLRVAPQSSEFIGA

SMILES	pIC50 [1]	pIC50 [2]	pIC50 [3]
CN(C)C[C@H](Oc1cc(-c2cnn(C)c2)cc2ncnc(Nc3ccc4ncsc4c3)c12)C(F)(F)F (single isomer, unassigned) [Example 179]	< 7.30	< 7.30	7.30 to 8.00
COC[C@@H](C)Oc1cc(N2CCN(C)C[C@H]2C)cc2ncnc(Nc3ccc4ncsc4c3)c12 (single isomer, unassigned) [Example 211]	< 7.30	< 7.30	7.30 to 8.00
COC[C@@H](C)Oc1cc(N2CCN(C)C[C@H]2C)cc2ncnc(Nc3ccc4ncsc4c3)c12 (single isomer, unassigned) [Example 212]	7.30 to 8.00	< 7.30	7.30 to 8.00
C[C@H](CO)Oc1cc(N2CCN(C)CC2)cc2ncnc(Nc3ccc4ncsc4c3F)c12 (single isomer, unassigned) [Example 295]	7.30 to 8.00	≥ 8.00	≥ 8.00
C[C@@H](Oc1cc(N2CCN(C)[C@@H]3C[C@@H]32)cc2ncnc(Nc3ccc4ncsc4c3)c12)C1COC1 (single isomer, unassigned) [Example 299]	7.30 to 8.00	7.30 to 8.00	≥ 8.00
C[C@H]1[C@H](Oc2cc(-c3cnn(C)c3)cc3ncnc(Nc4ccc5ncsc5c4)c23)CN1C (single isomer, unassigned) [Example 321]	7.30 to 8.00	7.30 to 8.00	≥ 8.00
CN1CC[C@@H](Nc2cc3c(Nc4ccc5ncsc5c4)ncnc3cc2-c2cnn(C)c2)[C@H](F)C1 (single isomer, unassigned) [Example 325]	7.30 to 8.00	< 7.30	≥ 8.00
CN1CC[C@@H](Nc2cc3c(Nc4ccc5ncsc5c4)ncnc3cc2-c2ccn(C)n2)[C@H](F)C1 (single isomer, unassigned) [Example 327]	≥ 8.00	≥ 8.00	≥ 8.00
CN1C[C@H](F)C[C@@H](Oc2cc(-c3cnn(C)c3)cc3ncnc(Nc4ccc5ncsc5c4)c23)C1 (single isomer, unassigned) [Example 333]	≥ 8.00	7.30 to 8.00	≥ 8.00
Cn1cc(-c2cc(O[C@@H]3CNC[C@H](F)C3)c3c(Nc4ccc5ncsc5c4)ncnc3c2)cn1 (single isomer, unassigned) [Example 334]	≥ 8.00	7.30 to 8.00	≥ 8.00
Cn1cc(-c2cc(O[C@@H]3CNC[C@H](F)C3)c3c(Nc4ccc5ncsc5c4)ncnc3c2)cn1 (single isomer, unassigned) [Example 335]	≥ 8.00	≥ 8.00	≥ 8.00
CN1C[C@H](F)C[C@H](Oc2cc(-c3cnn(C)c3)cc3ncnc(Nc4ccc5ncsc5c4)c23)C1 (single isomer, unassigned) [Example 336]	≥ 8.00	≥ 8.00	≥ 8.00
CN1CC[C@@H](Oc2cc(-c3cnn(C)c3)cc3ncnc(Nc4ccc5ncsc5c4)c23)[C@@H](F)C1 (single isomer, unassigned) [Example 340]	≥ 8.00	≥ 8.00	≥ 8.00
CN1CC[C@H](Oc2cc(-c3cnn(C)c3)cc3ncnc(Nc4ccc5ncsc5c4)c23)[C@@H](F)C1 (single isomer, unassigned) [Example 344]	≥ 8.00	≥ 8.00	≥ 8.00
Cn1cc(-c2cc(O[C@H]3CCNC[C@@H]3F)c3c(Nc4ccc5ncsc5c4)ncnc3c2)cn1 (single isomer, unassigned) [Example 346]	≥ 8.00	≥ 8.00	≥ 8.00
CN1CCC2(COC2)[C@H](Oc2cc(-c3cnn(C)c3)cc3ncnc(Nc4ccc5ncsc5c4)c23)C1 (single isomer, unassigned) [Example 353]	≥ 8.00	≥ 8.00	≥ 8.00
CN1CCC2(COC2)[C@H](Oc2cc(-c3cnn(C)c3)cc3ncnc(Nc4ccc5ncsc5c4)c23)C1 (single isomer, unassigned) [Example 354]	7.30 to 8.00	7.30 to 8.00	≥ 8.00
COc1nn(C)cc1-c1cc(O[C@@H]2CCN(C)C[C@H]2F)c2c(Nc3ccc4ncsc4c3)ncnc2c1 (single isomer, unassigned) [Example 358]	≥ 8.00	≥ 8.00	≥ 8.00
COc1nn(C)cc1-c1cc(O[C@@H]2CCN(C)C[C@H]2F)c2c(Nc3ccc4ncsc4c3)ncnc2c1 (single isomer, unassigned) [Example 359]	≥ 8.00	7.30 to 8.00	≥ 8.00
COc1nn(C)cc1-c1cc(O[C@H]2CCNC[C@@H]2F)c2c(Nc3ccc4ncsc4c3)ncnc2c1 (single isomer, unassigned) [Example 360]	≥ 8.00	≥ 8.00	≥ 8.00
CN1CC[C@H](Oc2cc(-c3cn(C)nc3OC(F)F)cc3ncnc(Nc4ccc5ncsc5c4)c23)[C@@H](F)C1 (single isomer, unassigned) [Example 368]	≥ 8.00	7.30 to 8.00	≥ 8.00
CN1CC[C@H](Oc2cc(-c3cn(C)nc3OC(F)F)cc3ncnc(Nc4ccc5ncsc5c4)c23)[C@@H](F)C1 (single isomer, unassigned) [Example 369]	7.30 to 8.00	7.30 to 8.00	≥ 8.00

Continued, values first:

pIC50 [1]	pIC50 [2]	pIC50 [3]	SMILES
≥ 8.00	7.30 to 8.00	≥ 8.00	CC(Oc1cc(-c2cn(C)nc2OC(F)F)cc2ncnc(Nc3ccc4ncsc4c3)c12)C1COC1 (single isomer, unassigned) [Example 172]
≥ 8.00	≥ 8.00	≥ 8.00	CC(Oc1cc(-c2cn(C)nc2OC(F)F)cc2ncnc(Nc3ccc4ncsc4c3)c12)C1COC1 (single isomer, unassigned) [Example 173]
≥ 8.00	≥ 8.00	≥ 8.00	C[C@@H](Oc1cc(-c2cn(C)n(C(F)F)c2=O)cc2ncnc(Nc3ccc4ncsc4c3)c12)C1COC1 (single isomer, unassigned) [Example 174]
≥ 8.00	7.30 to 8.00	≥ 8.00	C[C@@H](Oc1cc(-c2cn(C)n(C(F)F)c2=O)cc2ncnc(Nc3ccc4ncsc4c3)c12)C1COC1 (single isomer, unassigned) [Example 175]
≥ 8.00	≥ 8.00	≥ 8.00	CN(C)C[C@H](Oc1cc(-c2cnn(C)c2)cc2ncnc(Nc3ccc4ncsc4c3)c12)C(F)(F)F (single isomer, unassigned) [Example 178]
≥ 8.00	7.30 to 8.00	≥ 8.00	COC[C@H](C)Oc1cc(N2CCN(C)CC2)cc2ncnc(Nc3ccc4ncsc4c3)c12 (single isomer, unassigned) [Example 205]
≥ 8.00	≥ 8.00	≥ 8.00	C[C@@H](Oc1cc(-c2cnn(C)c2)cc2ncnc(Nc3ccc4ncsc4c3)c12)[C@H]1CNCCO1 (single isomer, unassigned) [Example 207]
≥ 8.00	≥ 8.00	≥ 8.00	C[C@@H](Oc1cc(-c2cnn(C)c2)cc2ncnc(Nc3ccc4ncsc4c3)c12)[C@H]1CN(C)CCO1 (single isomer, unassigned) [Example 209]
≥ 8.00	≥ 8.00	≥ 8.00	C[C@@H](Oc1cc(-c2cnn(C)c2)cc2ncnc(Nc3ccc4ncsc4c3F)c12)C(=O)N(C)C (single isomer, unassigned) [Example 279]
≥ 8.00	≥ 8.00	≥ 8.00	C[C@H](Oc1cc(-c2cnn(C)c2)cc2ncnc(Nc3ccc4ncsc4c3F)c12)C(=O)N1CCOCC1 (single isomer, unassigned) [Example 282]
≥ 8.00	≥ 8.00	≥ 8.00	COc1nn(C)cc1-c1cc(O[C@@H](C)C(=O)N(C)C)c2c(Nc3ccc4ncsc4c3F)ncnc2c1 (single isomer, unassigned) [Example 287]
≥ 8.00	≥ 8.00	≥ 8.00	C[C@H](CO)Oc1cc(-c2cnn(C)c2)cc2ncnc(Nc3ccc4ncsc4c3F)c12 (single isomer, unassigned) [Example 289]
≥ 8.00	≥ 8.00	≥ 8.00	C[C@@H](Oc1cc(-c2cnn(C(C)(C)CO)c2)cc2ncnc(Nc3ccc4ncsc4c3)c12)C1COC1 (single isomer, unassigned) [Example 291]
≥ 8.00	7.30 to 8.00	≥ 8.00	C[C@H](CO)Oc1cc(N2CCN(C)CC2)cc2ncnc(Nc3ccc4ncsc4c3)c12 (single isomer, unassigned) [Example 293]
≥ 8.00	≥ 8.00	≥ 8.00	C[C@H](CO)Oc1cc(N2CCN(C)CC2)cc2ncnc(Nc3ccc4ncsc4c3F)c12 (single isomer, unassigned) [Example 296]
≥ 8.00	≥ 8.00	≥ 8.00	C[C@H](CO)n1cc(-c2cc(O[C@H](C)C3COC3)c3c(Nc4ccc5ncsc5c4)ncnc3c2)cn1 (single isomer, unassigned) [Example 297]
≥ 8.00	≥ 8.00	≥ 8.00	CN1CC[C@@H](Nc2cc3c(Nc4ccc5ncsc5c4)ncnc3cc2-c2cnn(C)c2)[C@H](F)C1 (single isomer, unassigned) [Example 326]
